Test results taken from patent publication US8232263B2, “17,20(Z)-dehydro vitamin D analogs and their uses” (Wisconsin Alumni Research Foundation, priority 2004, dated 2012).
“Also recorded” adds a separate entry of the source.

What was measured:
[1] = system: Human promyelocytic leukemia (HL60) cells; assay: HL-60 differentiation (nitro blue tetrazolium reduction); assay type: cell-based; settings: FIG. 2; for EC50: HL60 cells, four days after treatment
Procedure: The study drugs were dissolved in ethanol and the concentrations determined using UV spectrophotometry. Serial dilutions were prepared so that a range of drug concentrations could be tested without changing the final concentration of ethanol (≦0.2%) present in the cell cultures.
Human promyelocytic leukemia (HL60) cells were grown in RPMI-1640 medium containing 10% fetal bovine serum. The cells were incubated at 37° C. in the presence of 5% CO2.
HL60 cells were plated at 1.2×10^5 cells/ml. Eighteen hours after plating, cells in duplicate were treated with drug. Four days later, the cells were harvested and a nitro blue tetrazolium reduction assay was performed (Collins et al., 1979; J. Exp. Med. 149:969-974). The percentage of differentiated cells was determined by counting a total of 200 cells and recording the number that contained intracellular black-blue formazan deposits. Verification of differentiation to monocytic cells was determined by measuring phagocytic activity (data not shown).

[2] = system: 24-hydroxylase (24Ohase) gene promoter in ROS 17/2.8 (bone) cells; assay: In vitro transcription assay (luciferase reporter); assay type: cell-based; settings: FIG. 3; for EC50: ROS 17/2.8 cells, 24Ohase promoter-luciferase, sixteen hours after dosing, read-out: EC50, transcriptional activity in bone cells
Procedure: Transcription activity was measured in ROS 17/2.8 (bone) cells that were stably transfected with a 24-hydroxylase (24Ohase) gene promoter upstream of a luciferase reporter gene (Arbour et al., 1998). Cells were given a range of doses. Sixteen hours after dosing the cells were harvested and luciferase activities were measured using a luminometer. RLU=relative luciferase units.

[3] = Bone calcium mobilization (serum calcium) in vitamin D-deficient rats; assay type: in vivo, Sprague-Dawley rats
Procedure: (§1) Male, weanling Sprague-Dawley rats were placed on Diet 11 (Suda et al, J. Nutr. 100:1049, 1970) (0.47% Ca)+vitamins AEK for one week followed by Diet 11 (0.02% Ca)+vitamins AEK for 3 weeks. The rats were then switched to the same diet containing 0.47% Ca for one week followed by two weeks on the same diet containing 0.02% Ca. Dose administration began during the last week on 0.02% calcium diet. Four consecutive ip doses were given approximately 24 hours apart. Twenty-four hours after the last dose, blood was collected from the severed neck and the concentration of serum calcium determined by atomic absorption spectrometry as a measure of bone calcium mobilization. The first 10 cm of the intestine was also collected for intestinal calcium transport analysis using the everted gut sac method.
(§2) Antagonism was tested by administering a combination of 1,25(OH)2D3 and the compound to the animal simultaneously.

[4] = Intestinal calcium transport, everted gut sac method, in vitamin D-deficient rats; assay type: in vivo, Sprague-Dawley rats; settings: VIT-III 260, 2340 or 7020 pmol/day versus 1,25(OH)2D3 260 pmol/day, FIG. 5
Procedure: as §1, §2

[5] = target: T1, full-length recombinant rat vitamin D receptor (Rattus norvegicus, UniProt P13053); assay: Vitamin D receptor binding, competition with [3H]-1,25(OH)2D3; settings: FIG. 1
T1 construct: Full-length recombinant rat receptor was expressed in E. coli BL21 (DE3) Codon Plus RIL cells; histidine tag (C); made in house; host or cells: E. coli BL21 (DE3) Codon Plus RIL
T1 sequence (P13053 1-423): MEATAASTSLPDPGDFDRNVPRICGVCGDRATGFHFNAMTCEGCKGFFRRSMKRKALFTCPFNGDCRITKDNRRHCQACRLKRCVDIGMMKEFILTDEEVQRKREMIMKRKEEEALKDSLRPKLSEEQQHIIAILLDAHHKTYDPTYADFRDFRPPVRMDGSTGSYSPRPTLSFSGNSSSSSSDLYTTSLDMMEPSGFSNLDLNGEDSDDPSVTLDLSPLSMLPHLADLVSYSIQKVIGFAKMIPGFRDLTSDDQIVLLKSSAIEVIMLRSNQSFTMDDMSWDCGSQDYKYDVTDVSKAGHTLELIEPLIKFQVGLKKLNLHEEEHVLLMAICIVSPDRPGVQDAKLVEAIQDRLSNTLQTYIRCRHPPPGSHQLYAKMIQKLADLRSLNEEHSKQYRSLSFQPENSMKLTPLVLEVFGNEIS
Procedure: Full-length recombinant rat receptor was expressed in E. coli BL21 (DE3) Codon Plus RIL cells and purified to homogeneity using two different column chromatography systems. The first system was a nickel affinity resin that utilizes the C-terminal histidine tag on this protein. The protein that was eluted from this resin was further purified using ion exchange chromatography (S-Sepharose Fast Flow). Aliquots of the purified protein were quick frozen in liquid nitrogen and stored at −80° C. until use. For use in binding assays, the protein was diluted in TEDK50 (50 mM Tris, 1.5 mM EDTA, pH7.4, 5 mM DTT, 150 mM KCl) with 0.1% Chaps detergent. The receptor protein and ligand concentration was optimized such that no more than 20% of the added radiolabeled ligand was bound to the receptor.
Radiolabeled and unlabeled ligands were added to 100 mcl of the diluted protein at a final ethanol concentration of ≦10%, mixed and incubated overnight on ice to reach binding equilibrium. The following day, 100 mcl of hydroxylapatite slurry (50%) was added to each tube and mixed at 10-minute intervals for 30 minutes. The hydroxylapaptite was collected by centrifugation and then washed three times with Tris-EDTA buffer (50 mM Tris, 1.5 mM EDTA, pH 7.4) containing 0.5% Titron X-100. […] Total binding was determined from the tubes containing only radiolabeled ligand.

SMILES | EC50 [1] [nM] | EC50 [2] [nM] | serum calcium levels ([3]; native hormone at the dosage tested, FIG. 4) | intestinal calcium transport activity as compared to 1,25(OH)2D3 [4] | HL-60 cell differentiation potency as compared to 1,25(OH)2D3 [1] | EC50 ([1]; Homo sapiens, HL-60, 96 h) [nM] | transcriptional activity in bone cells as compared to 1α,25-dihydroxyvitamin D3 [2] | mobilization of bone calcium (serum calcium) ([3]; 260 pmol/day for 4 consecutive days) | mobilization of bone calcium (serum calcium) ([3]; 2340 pmol/day and then 7020 pmol/day) | binding to the receptor as compared to 1,25-(OH)2D3 ([5]; full length recombinant rat VDR) | Ki ([5]; full-length recombinant rat VDR) [nM]
C=C1/C(=C\C=C2/CCC[C@]3(C)[C@@H]([C@H](C)CCCC(C)(C)O)CC[C@@H]23)C[C@@H](O)C[C@@H]1O [1α,25-dihydroxyvitamin D3, reference compound] | 1.3 | 0.29 | increased serum calcium levels |  |  |  |  |  |  |  | 
C=C1[C@H](O)CC(=C/C=C2\CCC[C@]3(C)/C(=C(/C)CCCC(C)(C)O)CC[C@@H]23)C[C@H]1O [VIT-III, 17(Z)-1α,25-dihydroxy-17(20)-dehydro-2-methylene-19-norvitamin D3] |  | 0.0044 |  | significant increase in intestinal calcium transport activity; also recorded: relatively high activity | as potent as 1,25(OH)2D3 | 0.37 | about the same transcriptional activity | significant mobilization of bone calcium | progressively increasing serum calcium levels well above the effects seen with 1,25(OH)2D3 | bound equally well | 0.05
